Test results taken from patent US20250163522A1, “METHODS FOR PRESERVING HEALTHY INTESTINAL MICROBIOME DURING GROWTH PROMOTER ADMINSTRATION” (BIOMEDIT, LLC, priority 2022, published 2025).
“Also recorded” adds a separate entry of the source.

How the values were obtained:
Type in all cases: in vivo, chickens (Gallus gallus)
[1] = system: cecal microbiome; test: Shotgun metagenomics (functional/taxonomic profiles, GSEA) of cecal microbiome, day 35 broilers; conditions: day 35 cecal samples
Method: 74 frozen cecal samples from day 35 birds were sent to CosmosID (Rockville, MD) for shotgun metagenomics sequencing. DNA was extracted using the ZymoBIOMICS DNA Miniprep Kit (ZymoBIOMICS, Irvine, CA) according to the manufacturers protocol. The isolated DNA was quantified by Qbit (ThermoFisher, Coon Rapids, MN). DNA libraries were prepared using the Illumina Nextera XT library preparation kit (Illumina, San Diego, CA), with a modified protocol. Libraries were then sequenced on an Illumina HiSeq platform 2×150 bp.
Reads were trimmed and Illumina adapters removed using Trimmomatic (v 0.39) (Bolger et al., Bioinformatics 30, 2114-2120 (2014)) with options SLIDINGWINDOW:5:20 LEADING:3 TRAILING:3. Host reads (Gallus gallus, GenBank assembly GCA_000002315) and spike-in reads from Vibrio harveyii (ATCC 14126) were removed using Bowtie2 (v. 2.3.5.1) (Langmead et al., Nat Methods 9, 357-359 (2012)).
Taxonomic profiling of individual reads was carried out using Kaiju (v. 1.7.3) (Menzel et al., Nat Commun 7, 11257 (2016)) with the nr_euk database. Kaiju outputs were summarized for each read as the number of bases aligned to proteins in the reference database. In cases of individual reads mapping to more than one taxonomic group, the number of bases assigned to each taxon was calculated as the alignment length (in base pairs) multiplied by the fraction of bases assigned unambiguously to said taxon out of all the taxa to which the read mapped. The numbers of assigned bases per read were used to estimate species-level relative abundances using metametamerge (v. 1.1) (Piro, V. C., et al., Microbiome 5, 101 (2017).) taking into account the average coding length per species in the nr_euk database.
Functional profiling was done by first assembling the reads from each sample into contigs using Spades (v. 3.13.1, option --meta) (Nurk, S. et al., Genome Res 27, 824-834 (2017)), with default parameters, followed by protein prediction with Prokka (v. 1.14.5) (Seemann, T. Prokka: Bioinformatics 30, 2068-2069 (2014).). Predicted protein sequences were aligned to a reference database and using Diamond (v. 0.9.30) (Buchfink, B. et al. Nat Methods 18, 366-368 (2021)) and annotated based on the function assigned to the top hit in the database. To avoid misannotations, (Plata, G. et al. Nat Chem Biol 8, 848-854 (2012)) the inventors only considered hits with at least 70% identity and 70% query coverage. The reference database was built starting from 46,181 complete bacterial genomes downloaded from the PATRIC (Davis, J. J. et al. Nucleic Acids Res 48, D606-D612 (2020)) database representing at most 10 genomes per species from ˜400 taxonomic families including those most frequently observed in broiler microbiomes. To speed up functional annotations, protein sequences within each family in the database were clustered at 90% sequence identity using CD-HIT (v. 4.8.1) (Huang, Y. et al. Bioinformatics 26, 680-682 (2010)) and the longest sequence from each cluster was kept for the diamond search.
To quantify the abundance of each function per sample, reads were mapped to the corresponding contigs using BWA (v. 0.7.17) (Li, H. & Durbin, R. Bioinformatics 25, 1754-1760 (2009)), and reads mapping to each predicted protein were counted with HTseq (v. 0.11.3) (Anders, S. et al. Bioinformatics 31, 166-169 (2015)). Read counts per RAST functional role were TPM normalized based on the Prokka protein lengths (Zhao, S. et. al. RNA 26, 903-909 (2020)) and expressed in units of mean copy numbers per genome by calculating a normalization factor such that the median abundance of a set of universal-single copy bacterial genes (Creevey, C. J. et al. PLOS One 6, e22099 (2011)) was set to 1 (Manor, O. & Borenstein, E. Genome Biology 16, 53 (2015)). A similar procedure was used to produce a copy-number normalized matrix of functional roles across samples stratified by the bacterial genera of the protein hits used to transfer functional annotations. […]

[2] = system: AMR genes in the cecum microbiome; test: AMR gene abundance analysis (AMR++ pipeline) of cecal microbiome; conditions: day 35 cecum
Method: AMR gene abundances per sample were determined using the AMR++ pipeline (Lakin, S. M. et al., Nucleic Acids Res 45, D574-D580 (2017)) (v. 2.0.2) starting from the raw metagenomics sequences and using the MegaRes (v. 2.0.0) database. Only genes involved in drug resistance were considered. The AMR gene counts per sample obtained from AMR++ were expressed in unites of reads per kilobase per million reads (RPKM) based on the corresponding gene lengths from the MegaRes database. RPKM values across treatments were compared using the Mann-Whitney U test.

[3] = system: Ross 708 male broilers; test: Clinical study of in-feed AGPs in broilers: weight gain and feed conversion; conditions: in-feed: 50 g/ton BMD, 20 g/ton avilamycin, 16.5 g/ton virginiamycin, 70 g/ton narasin; 35 days
Source text: 500 healthy Ross 708 male broilers sourced from a commercial hatchery were used in the experiment. […] Birds were individually tagged with a unique identifier and were randomly assigned to one of 25 floor pens (20 animals per pen). Groups of 5 pens were assigned to each of 5 different treatments. The 5 treatments included: 1) control birds fed least-cost diets as follows: A starter diet was fed from days 0 to 14 of the study, followed by a grower diet (14-28d) and a finisher diet (28-35d). 2) Birds fed the above diets supplemented with 50 g/ton BMD. 3) Supplemented with 20 g/ton avilamycin. 4) Supplemented with 16.5 g/ton Virginiamycin. And 5) supplemented with 70 g/ton narasin. Birds were raised for 35 days in a barn on top of used litter.
Individual body weights were collected on days 0, 7, 21 and 35. Pen weights were collected on days 14 and 28. Feed weigh backs for each pen were done on days 7, 14, 21, 28 and 35 of the study. Average bird weights and feed intake per pen were used to calculate weekly values of average daily gain and feed conversion ratios. Weekly values were compared between treatments using the Mann Whitney U test. On days 7, 21 and 35 three birds per pen were randomly selected and euthanized for the collection of cecal contents and blood. Blood was collected via wing vein venipuncture, except for birds that were too small, in which cases direct heart puncture was used. In both cases, blood was collected into vacutainer tubes and centrifuged to obtain serum. Cecal samples were collected by aseptically squeezing the cecum content into a sterile tube. Cecal samples were placed on dry ice immediately after collection. All samples were stored at −80° C. until processing.

With CC[C@@H](C(=O)O)[C@@H]1O[C@@H]([C@@H](C)[C@H](O)[C@H](C)C(=O)[C@H](CC)[C@H]2O[C@]3(C=C[C@@H](O)[C@]4(CC[C@@](C)([C@H]5CC[C@](O)(CC)[C@H](C)O5)O4)O3)[C@H](C)C[C@@H]2C)[C@@H](C)C[C@@H]1C [narasin] the “functional processes depleted in cecal microbiome relative to controls (GSEA)” value [1] was “utilization of mucin polysaccharides as well as cell matrix components including sialic acid, N-acetylneuraminate and hyaluronic acid”, the “functional processes enriched in cecal microbiome relative to controls (GSEA)” value [1] was “propanediol utilization, molybdenum-containing cofactor synthesis and CO2 fixation via the Wood-Ljungdahl pathway; also recorded: Tryptophan synthesis, urea degradation, heme and tetrapyrrole biosynthesis, and xylose utilization” and the “effect on AMR gene abundance profiles” value [2] was “significantly different AMR gene abundance profiles”. For the same compound, the “AMR gene classes changed compared to controls” value ([2]; Mann-Whitney U p-value<0.05) was “enriched for resistance to tetracyclines”, the “total AMR gene abundance compared to control” value ([2]; RPKM) was “significant increase” and the “impact on bird performance” value [3] was “highest impact on performance”.
